# Publication PMC6201879, “N-substituted phenylbenzamides of the niclosamide chemotype attenuate obesity related changes in high fat diet fed mice” (PLoS ONE, 2018)
# Read-outs that look alike come from different tables or passages of the source.
# Columns and labels:
# [1] = tested on: carbonic anhydrase-III (CAIII); test: Western blot of carbonic anhydrase III in liver of HFD-fed mice; conditions: HFD fed-DIO mice; 10mg/kg for 12 days; vs sham
# [2] = tested on: fatty acid synthase (FAS); test: Western blot of fatty acid synthase in liver of HFD-fed mice; conditions: HFD fed-DIO mice; 10mg/kg for 12 days; vs sham
# PH5CH8 liver cells = test: High-throughput hepatic de novo lipogenesis (DNL) assay, high content imaging of steatotic phenotype; assay type: cell-based, human; conditions: for IC50: Homo sapiens
# [3] = tested on: phospho-S6 ribosomal protein; test: Western blot of phospho-S6 ribosomal protein in HEK293T cells; assay type: cell-based, human
# p-AMPK Thr-172 = test: Western blot of p-AMPK Thr-172 in liver of HFD-fed mice; conditions: HFD fed-DIO mice; 10mg/kg for 12 days; vs sham
# [4] = Body weight changes in HFD-fed mice; assay type: in vivo, mouse
# Description: We next measured body weight changes in HFD-fed animals prior to treatment with niclosamide or phenylbenzamide derivatives and after 12 days, prior to sacrifice. During this time, all animals (including sham) lost some weight.
# 20-week old animals were treated IP with 500199 at 10 or 25mg/kg by IP over a time-course of 9 days. At day 0, 3, 6 and 9 animals were weighed and tissue samples were collected for standard histological scoring of hepatic steatosis and automated quantitative histomorphometric scoring.
# [5] = tested on: HEK293 cells stably transduced with the human OCT3 transporter; test: Cellular oxygen consumption rate (OCR), MitoXpress Xtra; assay type: cell-based; conditions: HEK293 cells expressing human OCT3; for change in respiration / oxygen consumption rate (OCR): compared to DMSO control, 2 hours; for concentration dependence of OCR change: four concentrations
# Description: Oxygen consumption rate experiments were performed by ZenBio, Inc (RTP, NC). HEK293 cells stably transduced with the human OCT3 transporter were plated in black-walled microclear plates (Greiner-BioOne) at 60,000 cells per well in growth medium. Cells were incubated overnight to allow attachment before growth medium was removed and replaced with 150μL of assay medium containing compound dilutions. Four concentrations of each compound were prepared and transferred to the empty wells. Control wells contained assay medium only or assay medium containing […] (FCCP) at 1μM. Ten μL of MitoXpress Xtra reagent was added to each test well and 100μL of pre-warmed mineral oil was overlaid in each well to create a seal. The plates were immediately read on a FLUOstar Omega (BMG) using dual read Time Resolved Fluorescence (TR-F) for 2 hours, with measurements taken every 2 minutes using 340nm and 650nm as excitation and emission wavelengths respectively. For lifetime analysis, two measurements per well were taken: 1) delay of 30μs, with a window of 30μs; and 2) delay of 70μs with a window of 30μs. Background TRF values were subtracted from all readings. A ratiometric analysis was performed to determine changes in the Lifetime fluorescence signal: Lifetime (μs)[T] = (D2-D1)/ln(W1/W2), where D is delay; W is fluorescence window value at each time point. Lifetime slopes were calculated using each Lifetime measurement over time. Data are presented as mean ± standard error (SE). The differences between the control (DMSO) and compound treated wells were analyzed using the Student’s t-test. A value of p≤0.05 was considered statistically significant. […]
# [6] = tested on: phospho-AMPK Thr-172 (p-AMPK); test: Western blot of phospho-AMPK Thr-172 in HEK293T cells; assay type: cell-based, human
# Description: AMPK is a metabolic sensor that maintains cellular energy supply. As validation of these changes in lipid metabolism and cellular respiration we evaluated phospho-AMPK Thr-172 (p-AMPK) levels by Western blot in HEK293 cells treated with the phenylbenzamide derivatives. Compounds were screened at 1 and 10μM using the known uncouplers niclosamide and FCCP as positive controls (Fig 4A). […] We concluded that compounds that had little effect on oxygen consumption rates also had little effect on phosphorylation of AMPK.
# [7] = tested on: Phosphorylated AMPK (Thr-172); test: High-throughput phosphorylated AMPK (Thr-172) TR-FRET assay in HepG2 cells; assay type: cell-based, human; conditions: HepG2 TR-FRET dose response between 0.625 and 10 μM, 4 hours; also Western blot
# Description: Phosphorylated AMPK (Thr-172) TR-FRET Assay Kit was purchased from CisBio (Bedford MA). HepG2 [HB-8065] cells were trypsinized, harvested and counted using Countess II FL automated cell counter (Thermo Fisher Scientific). Cells were then seeded in Poly-D-Lysine coated 96-well black optical plates at a concentration of 10,000 cells per well in 50μL growth medium. After 24-hours, the media was removed and replaced with 50μL of fresh growth media containing compounds. Five concentrations of each compound were prepared, ranging from 10 to 0.625 μM and applied to columns 2–11 of the cell plate. Control wells contained DMSO (column 1-minimum response control) or 500199 (column 12-maximum response control). The final DMSO concentration was 0.45%. Cells were cultured for 4 hours before cells were lysed in 50μL of lysis buffer for 30 minutes at room temperature according to assays protocol. Following lysis, 16μL of lysate was transferred to white 384 well small volume assay plate and 4μL of antibody dyes were added per assay protocol.
# Following overnight incubation, quantitation was performed on a PHERAstar (BMG), using the HTRF protocol with an excitation wavelength of 337nm and emission wavelengths of 665nm and 620nm. The ratio between emission spectra (665/620) was assessed for each well individually and averaged for triplicate samples. Data are presented as mean ratio ± SE. The differences between the control (DMSO) and the compound treated wells were analyzed using two-way ANOVA and Dunnett’s post hoc test. A value of p<0.05 was considered to be significant.
# Fig 5 Validation of AMPK pathway activation by phenylbenzamide derivatives in HepG2 cells. A) Cells were seeded at 10,000 cells per well 24 hours prior to treating cells with indicated concentration of compound or DMSO (CTL) for 4 hours. 16μL of cell lysate was incubated with HTRF phospho-AMPK detection reagents and fluorescence emission read at 665nm and 620nm using a PHERAstar platereader. The mean and standard deviation of the HTRF Ratio from three replicate wells is shown. The unstimulated (DMSO) and positive controls lysates are shown in green and red respectively.
# [8] = PH5CH8 liver cells, 10-point dose response between 1μM and 1.9nM, read-out: IC50 (uM), inhibition of steatotic phenotype in DNL assay
# [9] = S1 Table, SAR for N-Substituted Phenylbenzamides, read-out: IC50
# [10] = S1 Table, SAR for N-Substituted Phenylbenzamides
Compound,CAIII protein levels in liver [1],FAS protein levels in liver [2],IC50 (PH5CH8 liver cells; [8]) [µM],IC50 (PH5CH8 liver cells; [9]) [µM],Active/Inactive (PH5CH8 liver cells; [10]),phospho-S6 ribosomal protein [3],phosphorylation of AMPK at Thr-172 in liver (p-AMPK Thr-172),body weight change vs sham ([4]; 10mg/kg I.P daily for 12 days),body weight vs sham ([4]; 10 or 25mg/kg IP over 9 days),change in respiration / oxygen consumption rate (OCR) [5],concentration dependence of OCR change [5],"phosphorylation of AMPK (p-AMPK Thr-172) by Western blot ([6]; 1 and 10μM, negatives re-screened at 5 and 20 μM, 3 hours)",concentration at which phosphorylation of AMPK peaks ([6]; Western blot) [µM],phosphorylation of AMPK (Figs 5 and 4D) [7]
"COC(=O)c1ccc(NC(=O)c2cc(C(C)(C)C)ccc2O)c(Cl)c1 [Compound 500199, Methyl 4-[(5-tert-butyl-2-hydroxybenzene)amido]-3-chlorobenzoate]",reduced,reduced,0.06,0.066,Active,inversely regulated,stimulated phosphorylation of AMPK at Thr-172,lost significantly more weight,no statistically significant difference,significant changes,dose dependent increase in OCR,stimulated phosphorylation of AMPK,5,–
"COC(=O)c1ccc(NC(=O)c2cc(C(F)(F)F)ccc2O)c(C)c1 [Compound 600655, Methyl 4-(2-hydroxy-5-[trifluoromethyl]benzamido)-3-methylbenzoate]",–,–,0.03,0.00025,Active,–,–,–,–,significant changes,dose dependent increase in OCR,–,–,stimulated phosphorylation of AMPK
